From patent publication US20080280879A1, “SUBSTITUTED HETEROCYCLIC DERIVATIVES AND THEIR PHARMACEUTICAL USE AND COMPOSITIONS” (priority 2007, published 2008)
≈ marks a conversion by molar mass, not a printed value.

Assays:
Assay type in all cases: cell-based, Staphylococcus aureus
[1] = test system: Staph aureus 1095 MRSA; assay: MIC, microtiter broth dilution (CLSI M7-A7), Assay 1, Table 12 column A, no serum; details: Assay 1, no serum; for MIC: Staphylococcus aureus, MRSA
Method in brief: (§1)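 Testing followed the CLSI M7-A7 dilution standard in microtiter trays, with serum conditions using Mueller-Hinton Broth plus 50% pooled inactivated human serum. Values are the lowest concentrations with no macroscopically visible growth.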

[2] = test system: Staph aureus 1146; assay: MIC, microtiter broth dilution (CLSI M7-A7), Assay 1, Table 12 column B, no serum; details: for MIC, column B: Staph aureus 1146, Assay 1, no serum; for MIC: Staphylococcus aureus, 1146, Staph aureus 1146, Assay 1, no serum
Method in brief: as §1

[3] = test system: Staph aureus 1146; assay: MIC in Mueller-Hinton Broth with 50% pooled inactivated human serum, Assay 1, Table 12; details: for MIC, column C: Staph aureus 1146, Assay 1, 50% human serum; for MIC: Staphylococcus aureus, 1146, Staph aureus 1146, Assay 1, 50% human serum, read-out: MIC, column C
Method in brief: as §1

[4] = test system: Staph aureus 2811; assay: MIC, microtiter broth dilution (CLSI M7-A7), Assay 1, Table 12 column D, no serum; details: for MIC, column D: Staph aureus 2811, Assay 1, no serum; for MIC: Staphylococcus aureus, 2811, Staph aureus 2811, Assay 1, no serum
Method in brief: as §1

[5] = test system: Staph aureus 2812; assay: MIC, microtiter broth dilution (CLSI M7-A7), Assay 1, Table 12 column E, no serum; details: for MIC, column E: Staph aureus 2812, Assay 1, no serum; for MIC: Staphylococcus aureus, 2812, Staph aureus 2812, Assay 1, no serum
Method in brief: as §1

[6] = test system: Staph aureus 1031; assay: MIC, microtiter broth dilution (CLSI M7-A7), Assay 2, Table 12 column F, no serum; details: for MIC, column F: Staph aureus 1031, Assay 2, no serum; for MIC: Staphylococcus aureus, 1031, Staph aureus 1031, Assay 2, no serum
Method: (§2) The assays described herein include a panel of bacterial isolates of Staphylococcus aureus. Assay 1 comprises the strains noted in Columns A through E, and Assay 2 comprises the strains noted in Columns F through H. The assays are performed in microtiter trays according to Methods for Dilution Antimicrobial Susceptibility Tests for Bacteria that Grow Aerobically; Approved Standard-7th edition (M7-A7) and interpreted according to the Performance Standards for Antimicrobial Susceptibility Testing; 16th Informational Supplement (M100-S16) published by Clinical Laboratory Standards Institute (CLSI). The antibacterial activity is presented in the form of a minimum inhibitory concentration (MIC) value in μg/ml format. The MIC value represents the lowest concentration of drug measured which prevented macroscopically visible growth under the conditions and specific doses tested. The compounds were initially dissolved in DMSO as 30 mM stocks and diluted accordingly to adjust to a concentration of 10 mg/ml or the compounds were dissolved in DMSO at a concentration of 10 mg/ml. For assessment of activity in the presence of human serum, S. aureus 1146 and S. aureus 1031 were inoculated into Mueller-Hinton Broth with 50% pooled inactivated human serum. In some cases, compounds were tested more than once in a particular assay. Where noted, the MIC value shown in Table 12 represents the geometric mean of the data from multiple runs.
(§3) It should be understood that the data in columns A-H represents MIC data in μg/ml and the notation “<=” means ‘less than or equal to’.

[7] = test system: Staph aureus 2810; assay: MIC, microtiter broth dilution (CLSI M7-A7), Assay 2, Table 12 column H, no serum; details: for MIC, column H: Staph aureus 2810, Assay 2, no serum; for MIC: Staphylococcus aureus, 2810, Staph aureus 2810, Assay 2, no serum
Method: as §2, §3

[8] = test system: Staph aureus 1031; assay: MIC in Mueller-Hinton Broth with 50% pooled inactivated human serum, Assay 2, Table 12 column G; details: for MIC: Staphylococcus aureus, 1031, Staph aureus 1031, Assay 2, 50% human serum
Method: as §2, §3

COc1ccc2nccc(C(O)CC[C@@H]3CCN(C4CC(c5ccccc5)C4)C[C@@H]3C(=O)O)c2c1 (single isomer, unassigned) [Example 1]
MIC, column A [1]: <=.0992 μg/ml | MIC, column B [2]: <=.0787 μg/ml | MIC, column C [3]: 0.3969 µg/mL (≈ 0.836 µM) | MIC, column D [4]: <=.0787 μg/ml | MIC, column E [5]: <=.0992 μg/ml | MIC, column F [6]: <=.0884 μg/ml | MIC, column H [7]: 0.125 µg/mL (≈ 0.263 µM)

COc1ccc2nccc([C@@H](O)CC[C@@H]3CCN(C4CCc5cc(F)ccc54)C[C@@H]3C(=O)O)c2c1 (single isomer, unassigned) [Example 75]
MIC [6]: > 64 µg/mL | MIC [8]: > 64 µg/mL | MIC [7]: > 64 µg/mL

COc1ccc2nccc(C(O)CC[C@@H]3CCN(C4CC(OCc5ccccc5)C4)C[C@@H]3C(=O)O)c2c1 (stereo partly drawn) [Example 20, (3R,4R)-1-[3-(benzyloxy)cyclobutyl]-4-[3-hydroxy-3-(6-methoxyquinolin-4-yl)propyl]piperidine-3-carboxylic acid]
MIC [6]: 16 µg/mL (≈ 31.7 µM) | MIC [8]: 64 µg/mL (≈ 127 µM) | MIC [7]: 16 µg/mL (≈ 31.7 µM)

COC(=O)[C@H]1CN(C2CCc3cc(F)ccc32)CC[C@H]1CCC(O)c1ccnc2ccc(OC)cc12 (stereo partly drawn) [Example 73, methyl (3R,4R)-1-(5-fluoro-2,3-dihydro-1H-inden-1-yl)-4-[3-hydroxy-3-(6-methoxyquinolin-yl)propyl]piperidine-3-carboxylate]
MIC, column F [6]: >64 µg/mL | MIC, column G ([8]; Staph aureus 1031, Assay 2, 50% human serum): >64 µg/mL | MIC, column H [7]: >64 µg/mL

COc1ccc2nccc(C(O)CC[C@@H]3CCN(C4CCc5cc(F)ccc54)C[C@@H]3C(=O)O)c2c1 (stereo partly drawn) [Example 74, (3R,4R)-1-(5-fluoro-2,3-dihydro-1H-inden-1-yl)-4-(3-hydroxy-3-(6-methoxyquinolin-4-yl)propyl)piperidine-3-carboxylic acid]
MIC [6]: > 64 µg/mL | MIC [8]: > 64 µg/mL | MIC [7]: > 64 µg/mL

COC(=O)[C@H]1CN(C2CCCc3ccccc32)CC[C@H]1CCC(O)c1ccnc2ccc(OC)cc12 (stereo partly drawn) [Example 76, (3R,4R)-methyl 4-(3-hydroxy-3-(6-methoxyquinolin-4-yl)propyl)-1-(1,2,3,4-tetrahydronaphthalen-1-yl)piperidine-3-carboxylate]
MIC [6]: > 64 µg/mL | MIC [8]: > 64 µg/mL | MIC [7]: > 64 µg/mL

COc1ccc2nccc(C(O)CC[C@@H]3CCN(C4CCCc5ccccc54)C[C@@H]3C(=O)O)c2c1 (stereo partly drawn) [Example 77, (3R,4R)-4-(3-hydroxy-3-(6-methoxyquinolin-4-yl)propyl)-1-(1,2,3,4-tetrahydronaphthalen-1-yl)piperidine-3-carboxylic acid]
MIC [6]: > 64 µg/mL | MIC [8]: > 64 µg/mL | MIC [7]: > 64 µg/mL

COc1ccc(C2CC(N3CC[C@@H](CC[C@H](O)c4ccnc5ccc(OC)cc45)[C@@H](C(=O)O)C3)C2)c(F)c1 (stereo partly drawn) [Example 220, (3R,4R)-1-[3-(2-fluoro-4-methoxyphenyl)cyclobutyl]-4-[(3S)-3-hydroxy-3-(6-methoxyquinolin-4-yl)propyl]piperidine-3-carboxylic acid]
MIC [1]: 64 µg/mL (≈ 122 µM) | MIC [2]: 32 µg/mL (≈ 61.2 µM) | MIC [3]: > 64 µg/mL | MIC [4]: 16 µg/mL (≈ 30.6 µM) | MIC [5]: 32 µg/mL (≈ 61.2 µM)

COc1ccc2ncc(F)c([C@@H](O)CC[C@@H]3CCN(C4CC(c5cc(F)cc(F)c5)C4)C[C@@H]3C(=O)O)c2c1 (stereo partly drawn) [Example 221, (3R,4R)-1-[3-(3,5-difluorophenyl)cyclobutyl]-4-[(3S)-3-(3-fluoro-6-methoxyquinolin-4-yl)-3-hydroxypropyl] piperidine-3-carboxylic acid]
MIC [1]: 1 µg/mL (≈ 1.89 µM) | MIC [2]: 0.25 µg/mL (≈ 0.473 µM) | MIC [3]: 4 µg/mL (≈ 7.57 µM) | MIC [4]: 0.25 µg/mL (≈ 0.473 µM) | MIC [5]: 0.25 µg/mL (≈ 0.473 µM)

COc1ccc2ncc(F)c(C(O)CC[C@@H]3CCN(C4CC(c5cc(F)cc(F)c5)C4)C[C@@H]3C(=O)O)c2n1 (stereo partly drawn) [Example 222, (3R,4R)-1-[3-(3,5-difluorophenyl)cyclobutyl]-4-[3-(3-fluoro-6-methoxy-1,5-naphthyridin-4-yl)-3-hydroxypropyl]piperidine-3-carboxylic acid]
MIC [1]: 0.25 µg/mL (≈ 0.472 µM) | MIC [2]: < 0.0625 µg/mL | MIC [3]: 2 µg/mL (≈ 3.78 µM) | MIC [4]: < 0.0625 µg/mL | MIC [5]: < 0.0625 µg/mL

COc1ccc2nccc([C@@H](O)CC[C@@H]3CCN(C4CC(c5cccc(C#N)c5)C4)C[C@@H]3C(=O)O)c2c1 (stereo partly drawn) [Example 223, (3R,4R)-1-[3-(3-cyanophenyl)cyclobutyl]-4-[(3S)-3-hydroxy-3-(6-methoxyquinolin-4-yl)propyl]piperidine-3-carboxylic acid]
MIC [1]: 16 µg/mL (≈ 32 µM) | MIC [2]: 4 µg/mL (≈ 8.01 µM) | MIC [3]: 32 µg/mL (≈ 64 µM) | MIC [4]: 4 µg/mL (≈ 8.01 µM) | MIC [5]: 8 µg/mL (≈ 16 µM)

COc1ccc2nccc([C@@H](O)CC[C@@H]3CCN(C4CC(c5ccccc5)C4)C[C@@H]3c3nn[nH]n3)c2c1 (stereo partly drawn) [Example 224, (S)-1-(6-methoxyquinolin-4-yl)-3-((3R,4R)-1-(3-phenylcyclobutyl)-3-(2H-tetrazol-5-yl)piperidin-4-yl)propan-1-ol]
MIC [1]: 2 µg/mL (≈ 4.01 µM) | MIC [2]: 0.25 µg/mL (≈ 0.501 µM) | MIC [3]: 8 µg/mL (≈ 16 µM) | MIC [4]: 0.25 µg/mL (≈ 0.501 µM) | MIC [5]: 0.5 µg/mL (≈ 1 µM)

COc1ccc2nccc([C@@H](O)CC[C@@H]3CCN(C4CC5c6ccccc6SC54)C[C@@H]3C(=O)O)c2c1 (stereo partly drawn) [Example 225]
MIC [1]: 1 µg/mL (≈ 1.98 µM) | MIC [2]: 0.25 µg/mL (≈ 0.495 µM) | MIC [3]: 2 µg/mL (≈ 3.96 µM) | MIC [4]: 0.25 µg/mL (≈ 0.495 µM) | MIC [5]: 0.5 µg/mL (≈ 0.991 µM)

COc1ccc2nccc([C@@H](O)CC[C@@H]3CCN(C4CC(c5cccc(C#N)c5)C4)C[C@@H]3C(=O)O)c2c1 (stereo partly drawn) [Example 226, (3R,4R)-1-(3-(3-cyanophenyl)cyclobutyl)-4-((S)-3-hydroxy-3-(6-methoxyquinolin-4-yl)propyl)piperidine-3-carboxylic acid]
MIC, column A [1]: 16 µg/mL (≈ 32 µM) | MIC, column B [2]: 4 µg/mL (≈ 8.01 µM) | MIC, column C [3]: 32 µg/mL (≈ 64 µM) | MIC, column D [4]: 4 µg/mL (≈ 8.01 µM) | MIC, column E [5]: 8 µg/mL (≈ 16 µM)

COc1ccc2ncc(F)c([C@@H](O)CC[C@@H]3CCN(C4CC(=O)N(c5ccccc5)C4)C[C@@H]3C(=O)O)c2c1 (stereo partly drawn) [Example 227]
MIC [1]: 8 µg/mL (≈ 15.3 µM) | MIC [2]: 2 µg/mL (≈ 3.83 µM) | MIC [3]: 64 µg/mL (≈ 123 µM) | MIC [4]: 2 µg/mL (≈ 3.83 µM) | MIC [5]: 8 µg/mL (≈ 15.3 µM)

(3R,4R)-1-(1-cyclobutylazetidin-3-yl)-4-[3-hydroxy-3-(6-methoxyquinolin-4-yl)propyl]piperidine-3-carboxylic acid [Example 130]
MIC, column A [1]: >64 µg/mL | MIC, column B [2]: >64 µg/mL | MIC, column C [3]: >64 µg/mL | MIC, column D [4]: >64 µg/mL | MIC, column E [5]: >64 µg/mL

(3R,4R)-1-[3-(2,5-difluorophenyl)cyclobutyl]-4-[3-(3-fluoro-6-methoxy-1,5-naphthyridin-4-yl)-3-hydroxypropyl]piperidine-3-carboxylic acid [Example 219]
MIC, column A [1]: 0.250 µg/mL | MIC, column B [2]: <0.0625 µg/mL | MIC, column C [3]: 2.00 µg/mL | MIC, column D [4]: <0.0625 µg/mL | MIC, column E [5]: 0.125 µg/mL
